Where two headings read alike, the source gives them in different places.
Legend:
[1] = tested on: FGFR2 fusion/rearrangement-positive cholangiocarcinoma (CCA); design: method as in PMID 29182496; conditions: 108 previously-treated patients; cited from earlier work
UC = tested on: UC; design: method as in PMID 31340094; conditions: 99 patients with UC; cited from earlier work
serum phosphate [2] = assay: Pharmacodynamics: serum phosphate level as PD marker for FGFR inhibition; type: in vivo, human (Chinese patients)
Description: Serum phosphate level was defined as the PD marker in the study for assessing FGFR inhibition. […] Serum phosphate levels were measured using phosphomolybdate UV method (measuring range: 0.31‑20.0 mg/dL) by the central laboratory (Q2 Solutions [Beijing] Co., Ltd.).
Serum samples were analyzed for the concentration of serum phosphate using phosphomolybdate UV method by the central laboratory (Q2 Solutions (Beijing) Co., Ltd.). The concentration of phosphomolybdate formed is directly proportional to the inorganic phosphate concentration and is measured photometrically. Phosphorus quantification was determined in human plasma on Roche/Hitachi cobas c systems. Measuring range was 0.10‑6.46 mmol/L (0.31‑20.0 mg/dL). Reagents: Phosphate (Inorganic) ver.2 (250 tests) Catalouge:03183793 122.

[3] = cited from earlier work
[4] = Safety: treatment-emergent adverse events (CTCAE v5.0), phase I; type: in vivo
Description: (§1) Tumor was assessed per RECIST v1.1 by investigator at baseline, and every 9 weeks after first dosing. […] Adverse events (AEs) were graded per CTCAE v5.0. […] Sponsor-defined clinically notable TEAEs included hyperphosphatemia, hypophosphatemia, nail toxicities, and serous retinal detachment.
(§2) All statistical analyses were conducted using SAS version 9.4 (or higher).

[5] = any grade, Japanese patients; cited from earlier work
serum phosphate [6] = conditions: Western population; cited from earlier work
[7] = Plasma pharmacokinetics of pemigatinib (LC–MS/MS, non-compartmental), phase I; type: in vivo, human (Chinese patients); conditions: for Tmax: read-out: tmax, median (min, max)
[8] = tested on: FGF/FGFR1-3 altered, advanced solid tumors; assay: Antitumor activity per RECIST v1.1 by investigator, phase I; type: in vivo, human (Chinese patients); conditions: 12 patients
Description: Tumor response was assessed by investigator according to Response Evaluation Criteria in Solid Tumors (RECIST) v1.1 every 9 weeks after first dosing.
as §1, §2
The Clopper-Pearson method was used to calculate the 95% confidence interval (CI) of ORR and DCR. The Kaplan–Meier method and the Brookmeyer and Crowley method were used to estimate PFS.

[9] = Western population, steady state, cited from earlier work
[10] = tested on: FGF/FGFR alterations and advanced malignancies; conditions: Western patients, cited from earlier work
advanced malignancies = conditions: Japanese population, cited from earlier work
[11] = 13.5 mg oral QD, C1D14 (steady state), N=12

## CCN1CCN(c2ccc(Nc3cc(N(C)C(=O)Nc4c(Cl)c(OC)cc(OC)c4Cl)ncn3)cc2)CC1 [Infigratinib]
[1]
  ORR: 23.1%

## COc1cc(OC)cc(N(CCNC(C)C)c2ccc3ncc(-c4cnn(C)c4)nc3c2)c1 [erdafitinib]
UC
  Overall objective response rate (ORR): 40%

## CCN1C(=O)N(c2c(F)c(OC)cc(OC)c2F)Cc2cnc3[nH]c(CN4CCOCC4)cc3c21 [pemigatinib]
Serum phosphate [2]; days 8 and 15 of cycle 1, 13.5 mg QD, 11 patients, CV% 31.3%
  Serum phosphate level increase, mean: 2.25 mg/dL
Serum phosphate [2]; days 8 and 15 of cycle 1, Chinese patients
  Serum phosphate concentration change from baseline, geomean (CV%): 2.15 (32.9%) mg/dL
Serum phosphate [2]; post 1 week off/intermission
  Serum phosphate level after 1 week off: decreased to baseline
Serum phosphate [2]; subsequent treatment after cycle 1
  Serum phosphorus during subsequent treatment: remained below or near the baseline levels
[3]; any grade, Western patients
  Incidence of hyperphosphataemia: 75%
[3]; grade ≥ 3, Western patients
  Incidence of hyperphosphataemia: 2.3%
[4]; 12 patients
  TEAEs leading to treatment interruption/discontinuation or death: No TEAEs led to treatment interruption/discontinuation or death
[4]; human, in vivo
  Anaemia: 6 (50.0) n (%)
  Blood alkaline phosphatase increased: 0 n (%)
  Blood bilirubin increased: 0 n (%)
  Blood lactate dehydrogenase increased: 0 n (%)
  Decreased appetite: 6 (50.0) n (%)
  Diarrhoea: 0 n (%)
  Gamma-glutamyltransferase increased: 1 (8.3) n (%)
  Hypoalbuminaemia: 6 (50.0) n (%)
  Hypochloraemia: 0 n (%)
  Incidence of anaemia: 50.0%
  Incidence of arthralgia: 8.3%
  Incidence of decreased appetite: 50.0%
  Incidence of gamma-glutamyltransferase increased: 8.3%
  Incidence of hypercalcaemia: 8.3%
  Incidence of hypoalbuminaemia: 50.0%
  Incidence of hypophosphatemia (clinically-notable TEAE): 25.0%
  Incidence of lipase increased: 8.3%
  Incidence of nail discolouration (clinically-notable TEAE): 8.3%
  Incidence of nail disorder (clinically-notable TEAE): 16.7%
  Incidence of nail toxicity (clinically-notable TEAE): 16.7%
  Incidence of proteinuria: 8.3%
  Low density lipoprotein increased: 0 n (%)
  Patients with dose reduction due to proteinuria: 8.3%
  Patients with grade ≥ 3 TEAEs: 25.0%
  Patients with grade ≥ 3 treatment-related AEs: 16.7%
  Proteinuria: 1 (8.3) n (%)
  Weight decreased: 0 n (%)
[4]; in vivo
  Ocular toxicity (vision blurred of grade 1): only one patient experienced ocular toxicity
  Serious TEAEs: No serious TEAEs occurred
[5]
  Incidence of hyperphosphataemia: 76%
Serum phosphate [6]
  Serum phosphate concentration change from baseline, geomean (CV%): 2.6 (40.4%) mg/dL
[7]; [11]
  CLss/F, geometric mean: 11.8 L/h
  CLss/F, mean ± STD: 13.3 ± 7.2 L/h
  Cmin,ss, geometric mean: 49.8 nM
  tmax, median (min, max): 1.99 (0.5, 23.2) h
[7]; Chinese patients, steady state, 13.5 mg QD
  AUCss,0-24, geomean: 2.6369 µM·h
[7]; Chinese patients, steady state, 13.5 mg QD, read-out: Cmax,ss, geomean
  Cmax: 215 nM
[7]; human, plasma, po, 13.5 mg, 13.5 mg oral QD, C1D1, N=12, read-out: AUC0-24, geometric mean (converted)
  AUC(0-t): 2.13 µM·h
[7]; human, plasma, po, 13.5 mg, 13.5 mg oral QD, C1D1, N=12, read-out: AUC0-24, mean ± STD
  AUC(0-t): 2.24 ± 0.861 µM·h
[7]; human, plasma, po, 13.5 mg, 13.5 mg oral QD, C1D1, N=12, read-out: Cmax, geometric mean (converted)
  Cmax: 154 nM
[7]; human, plasma, po, 13.5 mg, 13.5 mg oral QD, C1D1, N=12, read-out: Cmax, mean ± STD
  Cmax: 190 ± 108 nM
[7]; human, plasma, po, 13.5 mg, 13.5 mg oral QD, C1D1, N=12
  Tmax: ~1.52 h
[7]; human, plasma, po, 13.5 mg, 13.5 mg oral QD, C1D14 (steady state), N=12, read-out: AUCss,0-24, geometric mean (converted)
  AUC: 2.64 µM·h
[7]; human, plasma, po, 13.5 mg, 13.5 mg oral QD, C1D14 (steady state), N=12, read-out: AUCss,0-24, mean ± STD
  AUC: 2.94 ± 1.44 µM·h
[7]; human, plasma, po, 13.5 mg, 13.5 mg oral QD, C1D14 (steady state), N=12, read-out: Cmax,ss, geometric mean (converted)
  Cmax: 215 nM
[7]; human, plasma, po, 13.5 mg, 13.5 mg oral QD, C1D14 (steady state), N=12, read-out: Cmax,ss, mean ± STD
  Cmax: 246 ± 115 nM
[7]; human, plasma, po, 13.5 mg, 13.5 mg oral QD, C1D14 (steady state), N=12, read-out: Vz/F, geometric mean (converted)
  Vd/F: 170 L
[7]; human, plasma, po, 13.5 mg, 13.5 mg oral QD, C1D14 (steady state), N=12, read-out: Vz/F, mean ± STD
  Vd/F: 179 ± 60.4 L
[7]; human, plasma, po, 13.5 mg, 13.5 mg oral QD, C1D14 (steady state), N=12
  Tmax: ~1.99 h
[7]; human, plasma, po, 13.5 mg, 13.5 mg oral QD, C1D14 (steady state), N=12, read-out: t½ (elimination half-life), geometric mean (converted)
  half-life: 11.3 h
[7]; human, plasma, po, 13.5 mg, 13.5 mg oral QD, C1D14 (steady state), N=12, read-out: t½, mean ± STD (converted)
  half-life: 11.8 ± 4 h
[8]; 13.5 mg QD 2-weeks-on/1-week-off, confirmed
  Objective response rate (ORR): 16.7%
[8]
  Best overall confirmed response: Partial response: 2 (16.7%) n (%)
[8]; 95% CI […] - 48.4%
  Objective response rate: 2 (16.7%) n (%)
[9]
  AUCss,0-24, geomean: 2.62 µM·h
[9]; read-out: Cmax,ss, geomean
  Cmax: 236 nM
[10]; Fight-101, 3/13
  ORR for patients with FGFR mutations: 23.1%
[10]; Fight-101, 5/20
  ORR for patients with FGFR fusions/rearrangements: 25.0%
[10]; Fight-101
  Disease control rate: 40.6%
  Objective response rate: 9.4%
Advanced malignancies; Fight-102, 1/25
  Objective response rate: 4.0%
Advanced malignancies; Fight-102
  Disease control rate: 40.0%
